Assay results published in the supplement of paper PMC4932681.

Experiments:
T-47D Tam1 [1] = test: drug sensitivity score (DSS) (DSS (dimensionless)); higher = more sensitive; extreme values may be limits of the assay; settings: 4-OH-tamoxifen in medium 1 µM; 72 h
In short: (§1)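 CellTiter-Glo viability was the readout, taken on a PHERAstar and normalised to vehicle-only and positive controls. It was measured after breast cancer cell lines and their resistant derivatives spent 72 h at 37 °C in 384-well plates containing library drugs at five concentrations spanning a 10 000-fold range, with 1 μM of the selecting drug in the medium of resistant lines. From logistic dose–response fits in the Breeze pipeline came drug sensitivity score, relative IC50 (curve midpoint) and top-dose inhibition.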

ZR-75-1 Tam2 [2] = test: as above; settings: 4-OH-tamoxifen in medium 1 µM; 72 h
In short: as §1

T-47D [3] = test: as above; settings: 72 h
In short: as §1

BT-474 [4] = test: as above; settings: 72 h
In short: as §1

BT-474 Tam2 [5] = test: as above; settings: 4-OH-tamoxifen in medium 1 µM; 72 h
In short: as §1

ZR-75-1 [6] = test: as above; settings: 72 h
In short: as §1

MCF-7 Tam1 [7] = test: as above; settings: 4-OH-tamoxifen in medium 1 µM; 72 h
In short: as §1

ZR-75-1 Tam1 [8] = test: as above; settings: 4-OH-tamoxifen in medium 1 µM; 72 h
In short: as §1

MCF-7 [9] = test: as above; settings: 72 h
In short: as §1

T-47D Tam2 [10] = test: as above; settings: 4-OH-tamoxifen in medium 1 µM; 72 h
In short: as §1

BT-474 Tam1 [11] = test: as above; settings: 4-OH-tamoxifen in medium 1 µM; 72 h
In short: as §1

T-47D Tam1 [12] = test: relative IC50 (midpoint of fitted logistic curve, plateau may be below 50% inhibition; CellTiter-Glo viability); higher = less potent; settings: 4-OH-tamoxifen in medium 1 µM; 72 h
In short: as §1

ZR-75-1 Tam2 [13] = test: as above; settings: 4-OH-tamoxifen in medium 1 µM; 72 h
In short: as §1

T-47D [14] = test: as above; settings: 72 h
In short: as §1

BT-474 [15] = test: as above; settings: 72 h
In short: as §1

BT-474 Tam2 [16] = test: as above; settings: 4-OH-tamoxifen in medium 1 µM; 72 h
In short: as §1

ZR-75-1 [17] = test: as above; settings: 72 h
In short: as §1

ZR-75-1 Tam1 [18] = test: as above; settings: 4-OH-tamoxifen in medium 1 µM; 72 h
In short: as §1

MCF-7 [19] = test: as above; settings: 72 h
In short: as §1

T-47D Tam2 [20] = test: as above; settings: 4-OH-tamoxifen in medium 1 µM; 72 h
In short: as §1

BT-474 Tam1 [21] = test: as above; settings: 4-OH-tamoxifen in medium 1 µM; 72 h
In short: as §1

MCF-7 Tam1 [22] = test: as above; settings: 4-OH-tamoxifen in medium 1 µM; 72 h
In short: as §1

SMILES	drug sensitivity score (T-47D Tam1 [1])	drug sensitivity score (ZR-75-1 Tam2 [2])	drug sensitivity score (T-47D [3]; 4-OH-tamoxifen in medium 0 µM)	drug sensitivity score (T-47D [3]; 4-OH-tamoxifen in medium 1 µM)	drug sensitivity score (BT-474 [4]; 4-OH-tamoxifen in medium 0 µM)	drug sensitivity score (BT-474 [4]; 4-OH-tamoxifen in medium 1 µM)	drug sensitivity score (BT-474 Tam2 [5])	drug sensitivity score (ZR-75-1 [6]; 4-OH-tamoxifen in medium 0 µM)	drug sensitivity score (ZR-75-1 [6]; 4-OH-tamoxifen in medium 1 µM)	drug sensitivity score (MCF-7 Tam1 [7])	drug sensitivity score (ZR-75-1 Tam1 [8])	drug sensitivity score (MCF-7 [9]; 4-OH-tamoxifen in medium 0 µM)	drug sensitivity score (MCF-7 [9]; 4-OH-tamoxifen in medium 1 µM)	drug sensitivity score (T-47D Tam2 [10])	drug sensitivity score (BT-474 Tam1 [11])	relative IC50 (T-47D Tam1 [12])	relative IC50 (ZR-75-1 Tam2 [13])	relative IC50 (T-47D [14]; 4-OH-tamoxifen in medium 0 µM)	relative IC50 (T-47D [14]; 4-OH-tamoxifen in medium 1 µM)	relative IC50 (BT-474 [15]; 4-OH-tamoxifen in medium 0 µM)	relative IC50 (BT-474 [15]; 4-OH-tamoxifen in medium 1 µM)	relative IC50 (BT-474 Tam2 [16])	relative IC50 (ZR-75-1 [17]; 4-OH-tamoxifen in medium 0 µM)	relative IC50 (ZR-75-1 [17]; 4-OH-tamoxifen in medium 1 µM)	relative IC50 (ZR-75-1 Tam1 [18])	relative IC50 (MCF-7 [19]; 4-OH-tamoxifen in medium 0 µM)	relative IC50 (MCF-7 [19]; 4-OH-tamoxifen in medium 1 µM)	relative IC50 (T-47D Tam2 [20])	relative IC50 (BT-474 Tam1 [21])	relative IC50 (MCF-7 Tam1 [22])
CCCCC(=O)OCC(=O)[C@]1(O)Cc2c(O)c3c(c(O)c2[C@@H](O[C@H]2C[C@H](NC(=O)C(F)(F)F)[C@H](O)[C@H](C)O2)C1)C(=O)c1c(OC)cccc1C3=O [Valrubicin]	7.66	9.1	7.72	5.96	2.57	4.06	2.37	8.2	5.85	0.994	7.34	5.32	8.1	6.34	4.26	1100 nM	1130 nM	768 nM	1530 nM	2640 nM	3340 nM	4180 nM	554 nM	1320 nM	1280 nM	1450 nM	1270 nM	1380 nM	3120 nM	
Cn1cc(CNCC2CCN(c3ncc(C(=O)NO)cn3)CC2)c2ccccc21	13.5	9.02	15.4	21.5	17.3	24.5	20.9	9.45	5.44	1.39	10	16.4	15.2	8.78	21.3	43.9 nM	20.3 nM	43.5 nM	13.2 nM	21.6 nM	8.56 nM	14.9 nM	17.8 nM	30 nM	6.19 nM	25.4 nM	34.7 nM	91.3 nM	14.5 nM	
CN(C)C[C@@H]1CCn2cc(c3ccccc32)C2=C(C(=O)NC2=O)c2cn(c3ccccc23)CCO1	6.85	4.71	6.79	6.1	4.1	8.42	6.47	4.14	6.47	1.31	3.13	7.13	4.11	4.71	9.22	1430 nM	942 nM	1540 nM	2780 nM	3260 nM	1860 nM	2610 nM	1320 nM	1560 nM	1400 nM	2350 nM	2940 nM	2530 nM	1590 nM	
C=CC(=O)Nc1cc2c(Nc3ccc(F)c(Cl)c3)ncnc2cc1OCCCN1CCOCC1 [Canertinib]	6.06	2.58	3.92	0.761	24.8	33.6	31.6	3	3.11	1.4	2.99	6.68	6.46	5.77	34.2	513 nM	2780 nM	1230 nM		31.3 nM	12.4 nM	18.6 nM	2090 nM	1510 nM	1740 nM	1290 nM	1640 nM	1580 nM	11.7 nM	
O=C(CCCCCCC(=O)Nc1ccccc1)NO [Vorinostat]	5.24	2.51	5.73	4.3	5.53	10.5	7.23	1.99	1.27	0.897	3.29	8.23	8.2	2.19	6.36	1650 nM	2270 nM	2630 nM	3670 nM	2310 nM	1090 nM	1890 nM	2900 nM	3660 nM	1650 nM	1430 nM	1330 nM	3060 nM	2430 nM	
Cc1[nH]c2ccccc2c1CCNCc1ccc(/C=C/C(=O)NO)cc1 [Panobinostat]	12.7	7.47	15.5	15.9	17.8	23.3	17.2	8.15	4.19	1.73	5.02	16.3	15.2	8.64	19.8	47.5 nM	49.6 nM	44.7 nM	40.8 nM	19.7 nM	10.6 nM	22 nM	32.7 nM	81.7 nM	64.7 nM	28.7 nM	35.2 nM	87.6 nM	17.1 nM	
Oc1nc(-c2ccc(C(F)(F)F)cc2)nc2c1CSCC2 [XAV-939]	3.2	0.39	0	0	0	0	3.71	0	0	0	0	0	0.115	0	0			> 10000 nM	> 10000 nM	> 10000 nM	> 10000 nM		> 10000 nM	> 10000 nM	> 10000 nM	> 10000 nM		> 10000 nM	> 10000 nM	> 10000 nM
